Tested on: 171881-019-R-J1-PDC complex spheroid growth, % test/control
Test: Anticancer human tumor 171881-019-R-J1-PDC patient-derived invasive breast carcinoma cell line growth inhibition [Asc]
Conditions: for IC50: curve of first compound; for viability, T/C: stronger effect = lower value
In short: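 Tumor cells were grown as multicellular spheroids with stromal HUVEC and mesenchymal stem cells and treated singly or in combination. Concentrations fell in half-log steps from the clinical Cmax, or from 10 microM where none was known.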
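Wherever viability, T/C is given: spheroids exposed to compounds for 7 days.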

`C=C(F)C(=O)N1CCN(c2nc(OCC3CCCN3C)nc3c2CCN(c2cccc4cccc(Cl)c24)C3)CC1CC#N` (stereo not given) + Cc1c(S(C)(=O)=O)c(-c2cc(F)cc(N3CCN(c4ccc(NS(=O)(=O)c5ccc(NC(CCN6CCC(C(=O)OCCCP(=O)(O)O)CC6)CSc6ccccc6)c(S(=O)(=O)C(F)(F)F)c5)cc4)CC3)c2)c(-c2ccc(Cl)cc2)n1C(C)C was tested, and the IC50 (second compound 0.1 µM) was 5.61 µM, the IC50 (second compound 0.316 µM) was 5.89 µM and the IC50 (second compound 1 µM) was 4.12 µM. For the same molecule, the IC50 (second compound 3.16 µM) was 2.53 µM, the IC50 (second compound 10 µM) was 2.43 µM and the viability, T/C (second compound 0.1 µM, first compound 0.0316 µM) was 93.8%. It also gave a viability, T/C (second compound 0.1 µM, first compound 0.1 µM) of 86.7%, a viability, T/C (second compound 0.1 µM, first compound 0.316 µM) of 106% and a viability, T/C (second compound 0.1 µM, first compound 1 µM) of 90.9%. It also gave a viability, T/C (second compound 0.1 µM, first compound 3.16 µM) of 118%, a viability, T/C (second compound 0.1 µM, first compound 10 µM) of 0.36% and a viability, T/C (second compound 0.316 µM, first compound 0.0316 µM) of 130%. It also gave a viability, T/C (second compound 0.316 µM, first compound 0.1 µM) of 129%, a viability, T/C (second compound 0.316 µM, first compound 0.316 µM) of 113% and a viability, T/C (second compound 0.316 µM, first compound 1 µM) of 125%. For the same molecule, the viability, T/C (second compound 0.316 µM, first compound 3.16 µM) was 108%, the viability, T/C (second compound 0.316 µM, first compound 10 µM) was 0.3% and the viability, T/C (second compound 1 µM, first compound 0.0316 µM) was 124%. It also gave a viability, T/C (second compound 1 µM, first compound 0.1 µM) of 136%, a viability, T/C (second compound 1 µM, first compound 0.316 µM) of 133% and a viability, T/C (second compound 1 µM, first compound 1 µM) of 131%. For the same molecule, the viability, T/C (second compound 1 µM, first compound 3.16 µM) was 64.8%, the viability, T/C (second compound 1 µM, first compound 10 µM) was 0.25% and the viability, T/C (second compound 3.16 µM, first compound 0.0316 µM) was 161%. It also gave a viability, T/C (second compound 3.16 µM, first compound 0.1 µM) of 149%, a viability, T/C (second compound 3.16 µM, first compound 0.316 µM) of 144% and a viability, T/C (second compound 3.16 µM, first compound 1 µM) of 185%. The viability, T/C (second compound 3.16 µM, first compound 3.16 µM) was 23.6%, the viability, T/C (second compound 3.16 µM, first compound 10 µM) was 0.3% and the viability, T/C (second compound 10 µM, first compound 0.0316 µM) was 179%. The viability, T/C (second compound 10 µM, first compound 0.1 µM) was 191%, the viability, T/C (second compound 10 µM, first compound 0.316 µM) was 196% and the viability, T/C (second compound 10 µM, first compound 1 µM) was 202%. It also gave a viability, T/C (second compound 10 µM, first compound 3.16 µM) of 15.2% and a viability, T/C (second compound 10 µM, first compound 10 µM) of 0.27%.
With `CCN1C(C(=O)NC23CCC(C(=O)O)(CC2)CC3)C(c2cccc(Cl)c2F)C2(C(=O)Nc3cc(Cl)ccc32)C12CCCCC2` (stereo not given) + Cc1c(S(C)(=O)=O)c(-c2cc(F)cc(N3CCN(c4ccc(NS(=O)(=O)c5ccc(NC(CCN6CCC(C(=O)OCCCP(=O)(O)O)CC6)CSc6ccccc6)c(S(=O)(=O)C(F)(F)F)c5)cc4)CC3)c2)c(-c2ccc(Cl)cc2)n1C(C)C the IC50 (second compound 0.1 µM) was greater than 3 µM, the IC50 (second compound 0.316 µM) was greater than 3 µM and the IC50 (second compound 1 µM) was greater than 3 µM. The IC50 (second compound 3.16 µM) was greater than 3 µM, the IC50 (second compound 10 µM) was greater than 3 µM and the viability, T/C (second compound 0.1 µM, first compound 0.00949 µM) was 82.5%. The viability, T/C (second compound 0.1 µM, first compound 0.03 µM) was 107%, the viability, T/C (second compound 0.1 µM, first compound 0.0949 µM) was 102% and the viability, T/C (second compound 0.1 µM, first compound 0.3 µM) was 90.5%. It also gave a viability, T/C (second compound 0.1 µM, first compound 0.949 µM) of 105%, a viability, T/C (second compound 0.1 µM, first compound 3 µM) of 120% and a viability, T/C (second compound 0.316 µM, first compound 0.00949 µM) of 100%. The viability, T/C (second compound 0.316 µM, first compound 0.03 µM) was 110%, the viability, T/C (second compound 0.316 µM, first compound 0.0949 µM) was 129% and the viability, T/C (second compound 0.316 µM, first compound 0.3 µM) was 105%. The viability, T/C (second compound 0.316 µM, first compound 0.949 µM) was 144%, the viability, T/C (second compound 0.316 µM, first compound 3 µM) was 146% and the viability, T/C (second compound 1 µM, first compound 0.00949 µM) was 116%. It also gave a viability, T/C (second compound 1 µM, first compound 0.03 µM) of 133%, a viability, T/C (second compound 1 µM, first compound 0.0949 µM) of 129% and a viability, T/C (second compound 1 µM, first compound 0.3 µM) of 117%. The viability, T/C (second compound 1 µM, first compound 0.949 µM) was 130%, the viability, T/C (second compound 1 µM, first compound 3 µM) was 167% and the viability, T/C (second compound 3.16 µM, first compound 0.00949 µM) was 152%. It also gave a viability, T/C (second compound 3.16 µM, first compound 0.03 µM) of 147%, a viability, T/C (second compound 3.16 µM, first compound 0.0949 µM) of 159% and a viability, T/C (second compound 3.16 µM, first compound 0.3 µM) of 162%. It also gave a viability, T/C (second compound 3.16 µM, first compound 0.949 µM) of 146%, a viability, T/C (second compound 3.16 µM, first compound 3 µM) of 163% and a viability, T/C (second compound 10 µM, first compound 0.00949 µM) of 192%. It also gave a viability, T/C (second compound 10 µM, first compound 0.03 µM) of 179%, a viability, T/C (second compound 10 µM, first compound 0.0949 µM) of 182% and a viability, T/C (second compound 10 µM, first compound 0.3 µM) of 185%. The viability, T/C (second compound 10 µM, first compound 0.949 µM) was 193% and the viability, T/C (second compound 10 µM, first compound 3 µM) was 172%.

Source: PubChem BioAssay AID1963428 (Molecular Pharmacology Branch, DTP, NCI, 2024)
